Among the test systems are HCC-2998 colon; SN12C renal; OVCAR-8 ovarian; M14 melanoma; RXF 393 renal; SR leukemia; HT29 colon; OVCAR-3 ovarian; HCT-15 colon.
Common to all, as to experiment: NCI-60 cell line screen, 48 h

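Compound exposure: 48 hours, 5 concentrations, 96-well plates. At the GI50, growth is halved. At the TGI there is no net growth.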

`CN(C)C=Nc1ccn(CCO)c(=O)n1`: the TGI in the test with HCC-2998 colon, with SN12C renal, in the test with OVCAR-8 ovarian, in the test with M14 melanoma, in the test on RXF 393 renal and in the test with SR leukemia was more than 100 µM throughout. The TGI in the test with HT29 colon, in the test on OVCAR-3 ovarian and with HCT-15 colon was more than 100 µM in each case.
Regarding `Cc1cn(C2CC(O)C(COC(=O)c3ccccc3)O2)c(=O)[nH]c1=O` (stereo unspecified), the TGI in the test on HCC-2998 colon, in the test on SN12C renal, in the test on OVCAR-8 ovarian, in the test on M14 melanoma, with RXF 393 renal and in the test on SR leukemia was more than 100 µM throughout. Further, the TGI in the test with HT29 colon, in the test with OVCAR-3 ovarian and with HCT-15 colon was more than 100 µM each time.
Consider `CCN1C/C(=C\c2cc(OC)c(OC)cc2OC)C(=O)/C(=C/c2cc(OC)c(OC)cc2OC)C1`, for which the GI50 in the test with HCC-2998 colon is 1.74 µM; in the test with SN12C renal it was 3.11 µM; in the test on OVCAR-8 ovarian, 3.43 µM; in the test with M14 melanoma it was 2.3 µM; in the test on RXF 393 renal, 2.32 µM; in the test with SR leukemia it was 3.16 µM. In addition, the figures for the GI50 in the test on HT29 colon, in the test on OVCAR-3 ovarian and in the test with HCT-15 colon were 2.63 µM, 2.29 µM and 2.96 µM, respectively. In addition, the TGI in the test with HCC-2998 colon is 3.33 µM; in the test with SN12C renal it was 9.14 µM; in the test with OVCAR-8 ovarian, more than 100 µM; in the test on M14 melanoma it was 5.37 µM; in the test with RXF 393 renal it was 7.38 µM; in the test with SR leukemia, 8.99 µM. Moreover, the values for the TGI with HT29 colon, in the test with OVCAR-3 ovarian and with HCT-15 colon were 5.69 µM, 5.17 µM and 11.3 µM, respectively.
In the case of `COc1ccc(NC(=O)C(=O)c2c(O)c3ccc(O)cc3oc2=O)c([N+](=O)[O-])c1`, the TGI in the test with HCC-2998 colon, with M14 melanoma, in the test on RXF 393 renal, in the test with HT29 colon, with OVCAR-3 ovarian and with HCT-15 colon was more than 100 µM in each case.
Consider `CCCCCN(CCCCC)C(=O)[C@@H](CCC(=O)O)NC(=O)c1cc2ccccc2[nH]1`, for which the TGI was more than 100 µM in the test on HCC-2998 colon; more than 100 µM with SN12C renal; more than 100 µM in the test on OVCAR-8 ovarian; 53.4 µM in the test with M14 melanoma; 25.6 µM with RXF 393 renal; more than 100 µM in the test on HT29 colon. Also, the TGI with OVCAR-3 ovarian and with HCT-15 colon was more than 100 µM in each case.
For the compound `CC(C)(O)[C@@H]1CC[C@@]2(C)CCCC(O)C2(O)C1` (stereo partly specified), the TGI in the test on HCC-2998 colon, with SN12C renal, with OVCAR-8 ovarian, with M14 melanoma, in the test with SR leukemia and in the test on HT29 colon was more than 100 µM throughout. Moreover, the TGI with OVCAR-3 ovarian and in the test on HCT-15 colon was more than 100 µM each time.
Consider `Cc1c(Cl)cccc1NC(=O)C(=O)C(C(=O)c1ccccc1-c1ccccc1)C1OC(=O)c2ccccc21` (stereo unspecified), for which the TGI was 31.2 µM with HCC-2998 colon; more than 100 µM in the test with OVCAR-8 ovarian; 36.3 µM with M14 melanoma; 27.1 µM with RXF 393 renal; more than 100 µM in the test on HT29 colon; 33.8 µM in the test on OVCAR-3 ovarian.
For the compound `N.N.N.N.N.[Co+3].[I-].[N-]=[N+]=[N-]`, the GI50 in the test with HCC-2998 colon, with SN12C renal, with OVCAR-8 ovarian, in the test on M14 melanoma, in the test with HT29 colon and with OVCAR-3 ovarian was more than 100 µM each time. In addition, in the test with HCT-15 colon, the GI50 was more than 100 µM. In addition, the TGI with HCC-2998 colon, with SN12C renal, with OVCAR-8 ovarian, in the test with M14 melanoma, in the test on HT29 colon and in the test on OVCAR-3 ovarian was more than 100 µM in each case. The compound further returned a TGI in the test on HCT-15 colon of more than 100 µM.
Regarding `C/C(=C1/N=C(c2cc([N+](=O)[O-])ccc2Cl)N(c2cccc(C)c2)C1=O)c1cc2ccccc2oc1=O`, the TGI in the test with HCC-2998 colon, with SN12C renal, in the test with OVCAR-8 ovarian, in the test with M14 melanoma, with RXF 393 renal and with SR leukemia was more than 100 µM each time. Further, the TGI in the test on HT29 colon, in the test on OVCAR-3 ovarian and in the test with HCT-15 colon was more than 100 µM each time.
On to `COC(=O)C(Cc1cc(OC)c(OC)c(OC)c1)C(=O)OC`, for which the TGI with HCC-2998 colon, in the test on SN12C renal, in the test with OVCAR-8 ovarian, in the test on RXF 393 renal, with SR leukemia and with HT29 colon was more than 320 µM throughout. The TGI with OVCAR-3 ovarian and in the test on HCT-15 colon was more than 320 µM in each case.
As for `O=C1C2Nc3ccccc3SC2C(=O)N1c1ccc(Br)cc1` (stereo unspecified), the TGI in the test on HCC-2998 colon is more than 100 µM; with SN12C renal, more than 100 µM; in the test on OVCAR-8 ovarian, more than 100 µM; in the test on M14 melanoma, more than 100 µM; in the test on RXF 393 renal, 61.8 µM; in the test on HT29 colon, more than 100 µM. For the same compound, the TGI was 99.5 µM in the test on OVCAR-3 ovarian and more than 100 µM in the test on HCT-15 colon.
For the compound `Cn1c2c(c3ccccc31)CCN(CCCCN1CCCCC1)C2=O`, the TGI with SN12C renal, in the test on OVCAR-8 ovarian, in the test on M14 melanoma, in the test on RXF 393 renal, in the test on HT29 colon and in the test with OVCAR-3 ovarian was more than 100 µM in each case. In the test with HCT-15 colon, the TGI was more than 100 µM.
Turning to `CN(CCN1C(=O)c2cc([N+](=O)[O-])cc3cc([N+](=O)[O-])cc(c23)C1=O)CCN1C(=O)c2cc([N+](=O)[O-])cc3cc([N+](=O)[O-])cc(c23)C1=O`, the TGI is 23.8 µM in the test on HCC-2998 colon; more than 100 µM in the test on SN12C renal; 29.6 µM in the test with OVCAR-8 ovarian; 9.23 µM with M14 melanoma; 1.04 µM in the test on RXF 393 renal; more than 100 µM with HT29 colon. Besides, the TGI in the test with OVCAR-3 ovarian was more than 28 µM; in the test on HCT-15 colon, 8.65 µM.
`Cc1ccc(S(=O)(=O)OCCn2cnc3nc(NC(=O)c4ccccc4)[nH]c(=O)c32)cc1`: the TGI in the test with SN12C renal, with OVCAR-8 ovarian, with M14 melanoma, in the test with RXF 393 renal, with SR leukemia and in the test on HT29 colon was more than 100 µM throughout. Also, the TGI in the test on OVCAR-3 ovarian and with HCT-15 colon was more than 100 µM each time.
